# Test results as given in PubChem BioAssay AID588407 (The Scripps Research Institute Molecular Screening Center, 2011).
# Values joined by “and” are separate entries in the source; they are usually repeats but may differ in a detail not shown here. Identical values can stand only once. Active and inactive are the calls of the source. How the calls were made is not given here.
# Molecular target: Mu-type opioid receptor (Homo sapiens) + Delta-type opioid receptor (Homo sapiens) (UniProt P35372+P41143)
# Sequence (P35372 whole entry, looked up): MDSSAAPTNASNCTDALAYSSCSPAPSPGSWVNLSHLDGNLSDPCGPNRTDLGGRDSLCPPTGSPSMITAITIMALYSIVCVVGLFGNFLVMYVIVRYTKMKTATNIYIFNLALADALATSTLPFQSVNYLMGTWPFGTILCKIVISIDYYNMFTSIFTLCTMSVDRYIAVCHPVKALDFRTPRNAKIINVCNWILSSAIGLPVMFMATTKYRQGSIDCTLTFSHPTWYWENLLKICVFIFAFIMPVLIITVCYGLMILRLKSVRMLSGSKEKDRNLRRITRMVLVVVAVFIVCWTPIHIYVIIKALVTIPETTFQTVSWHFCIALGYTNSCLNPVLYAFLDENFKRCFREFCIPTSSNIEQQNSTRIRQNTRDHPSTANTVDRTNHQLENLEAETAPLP
# Sequence (P41143 whole entry, looked up): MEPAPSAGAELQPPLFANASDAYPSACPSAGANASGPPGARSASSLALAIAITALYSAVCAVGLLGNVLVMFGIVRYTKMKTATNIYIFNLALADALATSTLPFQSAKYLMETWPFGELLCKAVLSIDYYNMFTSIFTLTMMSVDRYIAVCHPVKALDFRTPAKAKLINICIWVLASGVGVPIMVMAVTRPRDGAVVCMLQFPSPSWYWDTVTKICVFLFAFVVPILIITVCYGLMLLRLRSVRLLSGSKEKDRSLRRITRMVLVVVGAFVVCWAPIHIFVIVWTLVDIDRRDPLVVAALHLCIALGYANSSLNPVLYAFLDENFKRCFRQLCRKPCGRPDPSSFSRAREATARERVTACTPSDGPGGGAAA
# Assay: OPRM1-OPRD1 heterodimer agonist potency – cell-based, luminescence, dose response (AID 588407);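 further: potency of agonists raising the heterodimer signal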
# Details: cells, MOR-DOR heterodimerization
row,SMILES,EC50
1,CCOC(=O)C1(CCc2ccccc2)CCN(Cc2ccco2)CC1,inactive
2,CN(C)C(CNC(=O)c1cccc(C(F)(F)F)c1)c1ccco1 (configuration not stated),> 92.4 µM (inactive)
3,CCOC(=O)C1(CCOc2ccccc2)CCN(Cc2cccn2-c2cccnc2)CC1,1.67 µM
4,Cc1cc(/C=C2\SC(=S)N(C)C2=O)c(C)n1-c1ccc(O)cc1,inactive
5,Cc1ccccc1OCC(O)Cn1c(=N)n(Cc2ccccc2)c2ccccc21 (configuration not stated),inactive
6,COc1ccc(C(CNC(=O)/C=C/c2c(Cl)nc3ccccn23)N(C)C)cc1 (configuration not stated),7.62 µM
7,Cc1ccc2nc(SC(C(=O)Nc3ccc(F)cc3)c3ccccc3)[nH]c2c1 (configuration not stated),> 92.5 µM (inactive)
8,COCCCn1c(N)c(-c2nc3ccccc3n2C)c2nc3ccccc3nc21,4.2 µM
9,CCCC(=O)NC(C)C(c1cccs1)N1CCN(c2ccccc2)CC1 (configuration not stated),inactive
10,CCOC(=O)C1(CCCc2ccccc2)CCN(Cc2cnn(C)c2)CC1,4.56 µM
11,Cc1ccc2cc(C(c3nnnn3Cc3ccccc3)N3CCc4ccccc43)c(=O)[nH]c2c1 (configuration not stated),inactive
12,CC1CN(C)C(C)c2c1oc1ccc(N)cc21 (configuration not stated),inactive
13,CN(C)C(CNC(=O)c1ccc2ccccc2c1)c1ccco1 (configuration not stated),inactive
14,Cn1c(CN2CCN(c3cccc(Cl)c3)CC2)nc2ccccc21,3.34 µM
15,Cc1cc(/C=C2\SC(=Nc3ccccc3)NC2=O)c(C)n1-c1ccc(S(N)(=O)=O)cc1,1.53 µM
16,CCC1(C)CC(CCNCc2ccc(N(C)C)cc2)(c2ccc(F)cc2)CCO1 (configuration not stated),2.9 µM
17,COc1ccc2c(c1)C=C(CN1CCC(CO)(CCc3ccccc3)CC1)CO2,inactive
18,COc1ccc(C2CC(c3ccc(OC)cc3)n3nc(NC(=O)c4cccs4)nc3N2)cc1 (configuration not stated),inactive
19,Oc1ccc(Oc2ccc3c(C(F)(F)F)cc(C(F)(F)F)nc3n2)cc1,inactive
20,CCOC(=O)C1(c2ccccc2)CCN(CCC(=O)Nc2cccc(Br)c2)CC1,8.78 µM
21,CCOC(=O)c1c(C)[nH]c(C(=O)OC/C(O)=C(\C#N)c2nc3ccccc3[nH]2)c1C,> 92.5 µM (inactive)
22,COc1ccc(C(CNC(=O)C(C)c2ccc3cc(OC)ccc3c2)N(C)C)cc1 (configuration not stated),inactive
23,CCOC(=O)C1(CCOc2ccccc2)CCN(Cc2ccc3c(c2)OCCO3)CC1,inactive
24,CC(=O)Nc1ccc(S(=O)(=O)NC2=C(N3CCN(Cc4ccccc4)CC3)C(=O)c3ccccc3C2=O)cc1,1.38 µM and 1.63 µM

row,SMILES,EC50
1,CSCCCNC(=O)c1ccc(OC2CCN(CCc3ccccc3)CC2)cc1,inactive
2,Cc1cc(N2CCN(C)CC2)ccc1NC(=O)c1ccc(-c2ccc(Cl)cc2)o1,inactive
3,CC(C)c1ccc(NC(=O)N(CCc2nc3ccccc3[nH]2)C2CCCC2)cc1,inactive
4,Cc1ccccc1Cn1c(O)c(N=NC(=S)Nc2ccccc2F)c2ccccc21,> 92.5 µM (inactive)
5,COc1ccc(C(CNC(=O)CCOc2ccccc2)N(C)C)cc1 (configuration not stated),inactive
6,Cc1ccc2nc(N(CCCN(C)C)C(=O)c3ccc(S(=O)(=O)N4CCc5ccccc5C4)cc3)sc2c1,8.9 µM
7,OCC1(CCc2ccccc2)CCN(Cc2cccn2-c2cccnc2)CC1,4.69 µM
8,COc1ccccc1NC(=O)c1sc2nc(C)cc(C)c2c1N,> 92.5 µM (inactive)
9,O=C(c1sc2ccccc2c1Cl)N(Cc1ccco1)C1CCS(=O)(=O)C1 (configuration not stated),inactive
10,CCN1CCN(c2ccc([N+](=O)[O-])c(Sc3nc4ccccc4[nH]3)c2)CC1,4.66 µM
11,CCc1ccc(NC(=O)N(CCCN2CCOCC2)Cc2cccs2)cc1,inactive
12,O=S(=O)(c1c(Cl)cc(Br)cc1Cl)N1CCN(C(=S)NC2CC2)CC1,5.98 µM
13,CCC(=O)C(CCN1CCOCC1)(c1ccccc1)c1ccccc1,0.982 µM
14,COc1ccc(-n2c3c(cc(C(=O)NNc4ccccc4C)c2=O)C(=O)CC(C)(C)C3)cc1,2.55 µM
15,CCC(=O)OC1(c2cccc(C)c2)CC(C)N(C)CC1C (configuration not stated),inactive
16,CN1CCN(Cc2nc3ccccc3c(=O)n2Cc2nc(-c3ccc4ccccc4c3)cs2)CC1,> 10.3 µM (inactive)
17,Cc1ccc(C)c(-n2cc(CNC(C)Cn3cncn3)c(-c3ccccc3)n2)c1 (configuration not stated),inactive
18,CN1C(CC(=O)Nc2ccc(Br)cc2)c2ccccc2CC1(C)C (configuration not stated),9.37 µM
19,COc1ccc(C2C(C#N)=C(N)N(c3sc4c(c3C#N)CCCC4)C3=C2C(=O)CC(C)(C)C3)cc1 (configuration not stated),4.6 µM
20,CCOC(=O)C1(CCOc2ccccc2)CCN(Cc2ccc(C)s2)CC1,inactive
21,CN(C)C(CNC(=O)c1ccc(Br)cc1)c1ccco1 (configuration not stated),inactive
22,CN(C)C(CNC(=S)Nc1ccccc1Cl)c1cccnc1 (configuration not stated),0.524 µM
23,COc1ccc(CNCCc2c[nH]c3ccccc23)c(OC)c1C,inactive
24,COC(=O)C1=C(C)N(CCCC(=O)O)C(=O)NC1c1ccccc1OS(=O)(=O)c1ccccc1[N+](=O)[O-] (configuration not stated),8.75 µM

row,SMILES,EC50
1,COc1cc2c3cc1Oc1cc(ccc1O)C[C@@H]1c4c(cc(OC)c(O)c4Oc4ccc(cc4)C[C@H]3N(C)CC2)CCN1C,inactive
2,CN(C)C(CNC(=O)Cc1ccc([N+](=O)[O-])cc1)c1ccccc1 (configuration not stated),7.74 µM
3,CCN(c1nc(N)c(C(=O)N=C(N)N)nc1Cl)C(C)C,9.57 µM
4,CN(C(=O)Cc1ccc(Cl)c(Cl)c1)C(CN1CCCC1)c1cccc(OCC(=O)O)c1 (configuration not stated),inactive
5,Cc1ccc(OCC(=O)Nc2ccc(NC(=O)c3cccs3)cc2)c(C)c1,> 10.3 µM (inactive)
6,CCOC(=O)C1(CC2CCCCO2)CCN(Cc2nc(-c3cccs3)oc2C)CC1 (configuration not stated),inactive
7,CN(C)C(CNC(=O)c1cc2ccccc2o1)c1ccco1 (configuration not stated),> 92.5 µM (inactive)
8,CN(C)C(CNC(=O)CSC(=S)N1CCCC1)c1ccccc1 (configuration not stated),0.969 µM
9,Cc1occc1C(=O)N/N=C/c1ccc(-c2ccccc2)cc1,> 92.4 µM (inactive)
10,CCOC(=O)C1(CCOc2ccccc2)CCN(Cc2cnc(C)s2)CC1,7.89 µM
11,COc1ccc(C(CNC(=O)c2ccc3c(c2)CCC3)N(C)C)cc1 (configuration not stated),0.0459 µM
12,Cc1ccc(NC(=O)c2ncn(CCCN[C@H](C)c3cccc4ccccc34)n2)cc1C,9.88 µM
13,CN1CCN(c2ccc(NC(=O)c3ccc(-c4ccccc4F)o3)cc2)CC1,3.26 µM
14,Cc1nc(N2CCN(c3ccccn3)CC2)c2c(C)c(C(=O)N3CCN(c4ccc(F)cc4)CC3)sc2n1,2.2 µM
15,Cc1ccc(C2(O)CN(c3ccccc3)C3=[N+]2CCS3)cc1 (configuration not stated),2.93 µM
16,COc1ccc(C2Nc3ccccc3C(=O)N2c2ccc(F)cc2)cc1CSc1ccccn1 (configuration not stated),inactive
17,CC1(NC(=O)CC(c2ccccc2)(c2ccccc2)c2ccccc2)CCN(CCCc2ccccc2)C1=O (configuration not stated),0.895 µM
18,CCOC(=O)C1(CC2CCCCO2)CCN(Cc2cc(F)ccc2-n2cccn2)CC1 (configuration not stated),8.74 µM
19,OCC1(CCc2ccccc2)CCN(Cc2ccccc2Cl)CC1,9.21 µM
20,COc1cc(C(=O)OC(C)C(=O)NCC2CCCCC2)cc(NC(=O)c2ccco2)c1OC (configuration not stated),> 92.5 µM (inactive)
21,CC1=C/C(=N\OS(=O)(=O)c2ccccc2)C(C)=CC1=O,inactive
22,CCN(Cc1ccccc1)S(=O)(=O)c1ccc(C(=O)N(CCCN(C)C)c2nc3c(C)c(C)ccc3s2)cc1,inactive
23,Cc1cccc(OCCC(=O)NCC(c2ccccc2)N(C)C)c1 (configuration not stated),inactive
24,CCOC(=O)C1(CC2CCCCO2)CCN(Cc2c(C)cc(C)cc2-n2cccn2)CC1 (configuration not stated),0.53 µM
